Data on 1 compound can be found in US11207290B2, “Combinations of cannabinoids and N-acylethanolamines” (SciSparc Ltd., priority 2015, dated 2021).

Each structure is given as a SMILES string. Entries after “also recorded” stand apart in the source; their conditions may differ.

The test system of data set [1] is Mice, strain ICR. The experiment in a line: Open Field (OF) test. Type of data set: in vivo. The settings on record: 15 minute session; for Average animal velocity (uncontrolled movement): FIG. 2. The protocol: (§1) Animals—Mice, strain ICR, male, 8 weeks of age at study initiation. The average animal body weight at study initiation was in the range of 31.97±1.61 g. […] Animals were randomly allocated to individual cages on the day of reception. Animals were acclimated for seven to nine days.
(§2) Test item was administered […] at a dose volume of 10 ml/kg according to the doses in Table 1. Dosing was performed 15 minutes before each of the behavioral tests.
Open Field (OF) tests were performed as follows—Fifteen minutes after test item/vehicle administration, mice were placed at the center of an open field box (43×43×40 cm) between 9 AM and 5 PM. On each side of the open field box, two frames placed at 2 and 5 cm height with 16 photocell beams per side ensure movement detection. The computer defined grid lines that divided the open field into two compartments: margin and center. Several variables were recorded during a 15 minute session of spontaneous activity including: time spent moving, traveled distance, time spent and number of visits to the central compartment.
(§3) Statistical analysis—Numerical results were given as means±standard error of the mean. The results were subjected either to a T-test or to two-way ANOVA, followed by Bonferroni post-hoc contrast analysis between the groups where applicable. A probability of less than 5% (p<0.05) was regarded as significant.

The subject of data set [2] is Mice, strain ICR. Nature of the data set: Tail pinch test (modified Haffner's method). It is filed as in vivo. The settings on record: for Latency to respond: vs control. The protocol:
as §1, §2
Tail pinch tests were performed as follows, according to the modified Haffner's method (as depicted in Takagi et al., Jpn. J. Pharmacol., 1966, 16, Pages 287-294)—Mice were pretested by pinching their tail base with an artery clip (1.5 mm width, constant force), and only the mice that show a nociceptive response such as biting the clip or vocalizing within 2 sec were used for experiments. […] To prevent tissue damage, the pressure stimuli was not applied for more than 10 sec. After drug treatments, the nociceptive response in the tail-pinch test was measured at varying intervals.
as §3

In data set [3] the test system is adult TS patients. The settings on record: single dose of 5, 7.5 or 10 mg THC compared with placebo, p=0.015; cited from earlier work.
Data set [4] concerns adult TS patients. The settings on record: 2.5 mg THC per day titrated to 10 mg, vs placebo, visits 3 and 4, p<0.05; cited from earlier work.
The conditions of data set [5]: widely considered; Buxbaum 1972; cited from earlier work.
The nature of data set [6]: Body weight gain during the study. The settings on record: vs vehicle group 1M. It is filed as in vivo, mice. The protocol: as §1, §2, §3

Turning to `CCCCCc1cc(O)c2c(c1)OC(C)(C)[C@@H]1CCC(C)=C[C@@H]21` [THC, (−)-trans-Δ9-tetrahydrocannabinol], the “Average animal velocity (uncontrolled movement)” value is “significantly increased the velocity” in the data set on Mice, strain ICR [1] (group 2M: THC 50 mg/kg, vs control 1M) and “had no effect” in the data set on Mice, strain ICR [1] (group 3M: THC 12.5 mg/kg). Further, the “Total time spent in the center of an arena (measure of anxiety)” value with Mice, strain ICR [1] (group 2M: THC 50 mg/kg, FIG. 3) was “decreased the time spent in the center”. Moreover, the “Analgesic effect at 15′ post administration” value is on record as “only group 4M exhibited an analgesic effect” in the data set on Mice, strain ICR [2] (group 2M: THC 50 mg/kg) and “exhibited an analgesic effect” in the data set on Mice, strain ICR [2] (group 3M: THC 12.5 mg/kg). Moreover, the Latency to respond result is reported as “higher compared to the control” in the data set with Mice, strain ICR [2] (group 2M: high dose THC 50 mg/kg, FIG. 4A) and “higher compared to the control” with Mice, strain ICR [2] (group 3M: low dose THC 12.5 mg/kg, FIG. 4B). In addition, the “Tourette Syndrome Symptom List (TSSL) self-rating” value in the data set with adult TS patients [3] is recorded as “significant global tic improvement”. Moreover, the “Global Clinical Impression Scale (GCIS)” value with adult TS patients [4] is “significant difference”. For the same compound, the “Minimal effective dose of THC as an analgesic” value in data set [5] is reported as 20 mg/kg. The “Body weight (BW) gain” value in data set [6] (group 2M: THC 50 mg/kg, FIG. 1A) is “characteristic weight gain”; in data set [6] (group 3M: THC 12.5 mg/kg, FIG. 1B), “increased; also recorded: characteristic weight gain”.
